Test results taken from the supplement of paper PMC10307832.

Key:
Assay in all cases: relative viability (nuclei count vs DMSO), 5 days (fraction); higher = more cells survive
ABC-1 = tested on: ABC-1
Method in brief: (§1)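 Lung cancer cell lines were seeded in 1536-well plates and dosed by pin tool the next day, with either a single drug or a fixed anchor-drug dose combined with five library-drug doses (not always all listed) spaced in √10 steps. Five days later, one step fixed the cells and stained their nuclei (final 0.05% Triton X-100, 1% formaldehyde, 1 ug/ml Hoechst), and nuclei were counted on 4× images. Relative viability is the nuclei count in treated wells divided by the count in vehicle wells, and each value is the median of duplicate plates.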

COR-L23 = tested on: COR-L23
Method in brief: as §1

ChaGo-K-1 = tested on: ChaGo-K-1
Method in brief: as §1

EMC-BAC-2 = tested on: EMC-BAC-2
Method in brief: as §1

HARA = tested on: HARA
Method in brief: as §1

HCC-15 = tested on: HCC-15
Method in brief: as §1

HCC-366 = tested on: HCC-366
Method in brief: as §1

HCC-78 = tested on: HCC-78
Method in brief: as §1

HOP-62 = tested on: HOP-62
Method in brief: as §1

LC-2-ad = tested on: LC-2-ad
Method in brief: as §1

NCI-H1395 = tested on: NCI-H1395
Method in brief: as §1

NCI-H1793 = tested on: NCI-H1793
Method in brief: as §1

NCI-H1944 = tested on: NCI-H1944
Method in brief: as §1

NCI-H1993 = tested on: NCI-H1993
Method in brief: as §1

NCI-H2023 = tested on: NCI-H2023
Method in brief: as §1

NCI-H2126 = tested on: NCI-H2126
Method in brief: as §1

NCI-H2228 = tested on: NCI-H2228
Method in brief: as §1

NCI-H23 = tested on: NCI-H23
Method in brief: as §1

NCI-H2405 = tested on: NCI-H2405
Method in brief: as §1

NCI-H358 = tested on: NCI-H358
Method in brief: as §1

NCI-H838 = tested on: NCI-H838
Method in brief: as §1

SK-LU-1 = tested on: SK-LU-1
Method in brief: as §1

O=c1cc(N2CCOCC2)oc2c(-c3cccc4c3sc3ccccc34)cccc12 + COc1cccc2cc(-c3nc([C@H]4CC[C@H](C(=O)O)CC4)n4ncnc(N)c34)[nH]c12 [OSI-027] (partner 0.5 µM)
relative viability (ABC-1; first compound 0.01 µM): 0.483
relative viability (ABC-1; first compound 0.03162 µM): 0.436
relative viability (ABC-1; first compound 0.1 µM): 0.557
relative viability (ABC-1; first compound 0.3162 µM): 0.523
relative viability (ABC-1; first compound 1 µM): 0.501
relative viability (COR-L23; first compound 0.01 µM): 0.748
relative viability (COR-L23; first compound 0.03162 µM): 0.774
relative viability (COR-L23; first compound 0.1 µM): 0.748
relative viability (COR-L23; first compound 0.3162 µM): 0.796
relative viability (COR-L23; first compound 1 µM): 0.834
relative viability (ChaGo-K-1; first compound 0.01 µM): 0.488
relative viability (ChaGo-K-1; first compound 0.03162 µM): 0.681
relative viability (ChaGo-K-1; first compound 0.1 µM): 0.363
relative viability (ChaGo-K-1; first compound 0.3162 µM): 0.706
relative viability (ChaGo-K-1; first compound 1 µM): 0.628
relative viability (EMC-BAC-2; first compound 0.01 µM): 0.409
relative viability (EMC-BAC-2; first compound 0.03162 µM): 0.427
relative viability (EMC-BAC-2; first compound 0.1 µM): 0.419
relative viability (EMC-BAC-2; first compound 0.3162 µM): 0.423
relative viability (EMC-BAC-2; first compound 1 µM): 0.385
relative viability (HARA; first compound 0.01 µM): 0.549
relative viability (HARA; first compound 0.03162 µM): 0.638
relative viability (HARA; first compound 0.1 µM): 0.554
relative viability (HARA; first compound 0.3162 µM): 0.585
relative viability (HARA; first compound 1 µM): 0.564
relative viability (HCC-15; first compound 0.01 µM): 0.674
relative viability (HCC-15; first compound 0.03162 µM): 0.807
relative viability (HCC-15; first compound 0.1 µM): 0.774
relative viability (HCC-15; first compound 0.3162 µM): 0.688
relative viability (HCC-15; first compound 1 µM): 0.67
relative viability (HCC-366; first compound 0.01 µM): 1
relative viability (HCC-366; first compound 0.03162 µM): 1.38
relative viability (HCC-366; first compound 0.1 µM): 1.12
relative viability (HCC-366; first compound 0.3162 µM): 0.928
relative viability (HCC-366; first compound 1 µM): 0.955
relative viability (HCC-78; first compound 0.01 µM): 0.369
relative viability (HCC-78; first compound 0.03162 µM): 0.362
relative viability (HCC-78; first compound 0.1 µM): 0.297
relative viability (HCC-78; first compound 0.3162 µM): 0.347
relative viability (HCC-78; first compound 1 µM): 0.342
relative viability (HOP-62; first compound 0.01 µM): 0.787
relative viability (HOP-62; first compound 0.03162 µM): 0.842
relative viability (HOP-62; first compound 0.1 µM): 0.821
relative viability (HOP-62; first compound 0.3162 µM): 0.81
relative viability (HOP-62; first compound 1 µM): 0.804
relative viability (LC-2-ad; first compound 0.01 µM): 0.903
relative viability (LC-2-ad; first compound 0.03162 µM): 0.993
relative viability (LC-2-ad; first compound 0.1 µM): 0.877
relative viability (LC-2-ad; first compound 0.3162 µM): 0.915
relative viability (LC-2-ad; first compound 1 µM): 0.785
relative viability (NCI-H1395; first compound 0.01 µM): 0.574
relative viability (NCI-H1395; first compound 0.03162 µM): 0.695
relative viability (NCI-H1395; first compound 0.1 µM): 0.488
relative viability (NCI-H1395; first compound 0.3162 µM): 0.68
relative viability (NCI-H1395; first compound 1 µM): 0.707
relative viability (NCI-H1793; first compound 0.01 µM): 0.33
relative viability (NCI-H1793; first compound 0.1 µM): 0.287
relative viability (NCI-H1793; first compound 0.3162 µM): 0.251
relative viability (NCI-H1793; first compound 1 µM): 0.247
relative viability (NCI-H1944; first compound 0.01 µM): 0.443
relative viability (NCI-H1944; first compound 0.03162 µM): 0.436
relative viability (NCI-H1944; first compound 0.1 µM): 0.429
relative viability (NCI-H1944; first compound 0.3162 µM): 0.44
relative viability (NCI-H1944; first compound 1 µM): 0.391
relative viability (NCI-H1993; first compound 0.01 µM): 0.501
relative viability (NCI-H1993; first compound 0.03162 µM): 0.521
relative viability (NCI-H1993; first compound 0.1 µM): 0.566
relative viability (NCI-H1993; first compound 0.3162 µM): 0.532
relative viability (NCI-H1993; first compound 1 µM): 0.65
relative viability (NCI-H2023; first compound 0.01 µM): 0.456
relative viability (NCI-H2023; first compound 0.03162 µM): 0.536
relative viability (NCI-H2023; first compound 0.1 µM): 0.424
relative viability (NCI-H2023; first compound 0.3162 µM): 0.394
relative viability (NCI-H2023; first compound 1 µM): 0.411
relative viability (NCI-H2126; first compound 0.01 µM): 0.709
relative viability (NCI-H2126; first compound 0.03162 µM): 0.707
relative viability (NCI-H2126; first compound 0.1 µM): 0.706
relative viability (NCI-H2126; first compound 0.3162 µM): 0.772
relative viability (NCI-H2126; first compound 1 µM): 0.702
relative viability (NCI-H2228; first compound 0.01 µM): 0.677
relative viability (NCI-H2228; first compound 0.03162 µM): 0.775
relative viability (NCI-H2228; first compound 0.1 µM): 0.558
relative viability (NCI-H2228; first compound 0.3162 µM): 0.605
relative viability (NCI-H2228; first compound 1 µM): 0.548
relative viability (NCI-H23; first compound 0.01 µM): 0.641
relative viability (NCI-H23; first compound 0.03162 µM): 0.633
relative viability (NCI-H23; first compound 0.3162 µM): 0.757
relative viability (NCI-H23; first compound 1 µM): 0.723
relative viability (NCI-H2405; first compound 0.01 µM): 0.717
relative viability (NCI-H2405; first compound 0.03162 µM): 0.615
relative viability (NCI-H2405; first compound 0.1 µM): 0.564
relative viability (NCI-H2405; first compound 0.3162 µM): 0.663
relative viability (NCI-H2405; first compound 1 µM): 0.685
relative viability (NCI-H358; first compound 0.01 µM): 0.83
relative viability (NCI-H358; first compound 0.03162 µM): 0.878
relative viability (NCI-H358; first compound 0.1 µM): 0.881
relative viability (NCI-H358; first compound 0.3162 µM): 0.844
relative viability (NCI-H358; first compound 1 µM): 0.781
relative viability (NCI-H838; first compound 0.01 µM): 0.401
relative viability (NCI-H838; first compound 0.03162 µM): 0.397
relative viability (NCI-H838; first compound 0.1 µM): 0.389
relative viability (NCI-H838; first compound 0.3162 µM): 0.42
relative viability (NCI-H838; first compound 1 µM): 0.374
relative viability (SK-LU-1; first compound 0.01 µM): 0.35
relative viability (SK-LU-1; first compound 0.03162 µM): 0.393
relative viability (SK-LU-1; first compound 0.1 µM): 0.355
relative viability (SK-LU-1; first compound 0.3162 µM): 0.398
relative viability (SK-LU-1; first compound 1 µM): 0.415
